From PMC12741935 (Alzheimer's & Dementia, 2025)

Test system: brain proteome
Experiment: Brain proteomics (DIA LC-MS/MS) after chronic NVS-PAK1-1 100 mg/kg BID PO vs vehicle in 5xFAD mice
Type: in vivo
Description: A total of 91 brain samples were prepared from mice in this study and analyzed by mass spectrometry proteomics. One third of the mixed‐chopped left hemisphere tissue was homogenized in 8 M urea lysis buffer (8 M urea, 10 mM Tris, 100 mM NaH2PO4, pH 8.5) with HALT protease and phosphatase inhibitor cocktail (Thermo Fisher) and sonicated for three cycles consisting of 5 seconds of active sonication at 30% amplitude, followed by 15 seconds on ice. Samples were then centrifuged for 5 minutes at 15,000 g and the supernatant was transferred to a new tube. Protein concentration was determined by bicinchoninic acid (BCA) assay (Pierce). For protein digestion, 200 µg of each sample was aliquoted and volumes normalized with additional lysis buffer. Samples were reduced with 5 mM DTT at room temperature for 30 minutes, followed by 10 mM iodoacetamide (IAA) alkylation in the dark for another 30 minutes. Lysyl endopeptidase (Wako) at 1:25 (w/w) was added, and digestion allowed to proceed overnight. Samples were then 7‐fold diluted with 50 mM ammonium bicarbonate. Trypsin (Promega) was then added at 1:25 (w/w) and digestion proceeded overnight. The peptide solutions were acidified to a final concentration of 1% (vol/vol) FA and 0.1% (vol/vol) TFA and desalted with a 10 mg HLB column (Oasis). Each HLB column was first rinsed with 1 mL of methanol, washed with 1 mL 50% (vol/vol) acetonitrile (ACN), and equilibrated with 2 × 1 mL 0.1% (vol/vol) TFA. The samples were then loaded onto the column and washed with 2 × 1 mL 0.1% (vol/vol) TFA. Elution was performed with 0.5 mL 50% (vol/vol) ACN. Samples were split into 50 µL and 400 µL aliquots. Residuals from all samples were combined to create a global internal standard pool.
Samples were resuspended in an equal volume of loading buffer (0.1% FA, 0.03% TFA, 1% ACN) and analyzed by LC‐MS/MS. Peptide eluents (1 µg) were separated on a Water's CSH (15 cm × 150 µM internal diameter [ID] with 1.7 µm CSH resin) by a Dionex Ultimate 3000 RSLCnano (Thermo Fisher). Buffer A was water with 0.1% (vol/vol) formic acid, and buffer B was 80% (vol/vol) acetonitrile in water with 0.1% (vol/vol) FA. Elution was performed over a 30 minute gradient. The gradient was from 1% to 99% solvent B. Peptides were monitored on an Orbitrap Fusion Lumos mass spectrometer (Thermo Fisher). Each cycle consisted of one full scan (MS1) performed with an m/z range of 380 to 985 at a 60,000 resolution at standard settings and 30 data independent scans (DIA) in 1.5 seconds. The higher energy collision‐induced dissociation (HCD) tandem scans were collected at 30% collision energy with an isolation of 10 m/z, a resolution of 15,000, an AGC setting of 200% normalized AGC target, and a maximum injection time set to 40 ms.
Raw data files were converted to mzML format for downstream processing using ThermoRawFilerParser v.1.4.4.[30] The data were processed using Data‐Independent Acquisition by Neural Network (DIA‐NN) v.1.9.1.[31] A spectral library was generated using all canonical mouse proteins from UniProt and SwissProt (accessed September 24, 2024) and contaminants from the Common Repository of Adventitious Proteins (cRAP) database [https://www.thegpm.org/crap/]; these contaminant proteins were excluded from normalization and downstream analysis. DIA‐NN was run using parameters specified as follows: precursor charge was set from 1 to 4 and precursor m/z was set from 200 to 5000. Enzyme digestion was set to strict trypsin with 1 allowed missed cleavage, peptide length was set from 7 to 50, and peptide m/z was set from 150 to 3000. The maximum number of variable modifications was set to 3 and methionine oxidation was allowed as a variable modification. Cysteine carbamidomethylation was allowed as a fixed modification. MS1 and MS2 mass accuracy (in ppm) were set using autodetect and the scan window was set using autodetect. The false discovery rate (FDR) threshold was set to 1%. […]

CC(C)NC(=O)N1CC[C@H](NC2=Nc3cc(F)ccc3N(CC(F)F)c3ccc(Cl)cc32)C1 [NVS‐PAK1‐1, (S)‐3‐([2‐chloro‐5‐(2,2‐difluoroethyl)‐8‐fluoro‐5H‐dibenzo[b,e][1,4]diazepin‐11‐yl]amino)‐N‐isopropylpyrrolidine‐1‐carboxamide]
logFC_NVS.PAK1.1_vs_vehicle (Map1lc3a, Young M 5xFAD brain): 0.1055 | logFC_NVS.PAK1.1_vs_vehicle (Map7d2, Aged M 5xFAD brain): 0.1103 | logFC_NVS.PAK1.1_vs_vehicle (Mark4, Young F 5xFAD brain): 0.2384 | logFC_NVS.PAK1.1_vs_vehicle (Mib2, Aged M 5xFAD brain): -0.4263 | logFC_NVS.PAK1.1_vs_vehicle (Mipep, Aged F 5xFAD brain): 1.596 | logFC_NVS.PAK1.1_vs_vehicle (Myh10, Aged F 5xFAD brain): -1.404 | logFC_NVS.PAK1.1_vs_vehicle (Mylk, Aged M 5xFAD brain): -1.455 | logFC_NVS.PAK1.1_vs_vehicle (Nck2, Aged M 5xFAD brain): 0.1477 | logFC_NVS.PAK1.1_vs_vehicle (Nherf1, Young F 5xFAD brain): -0.1106 | logFC_NVS.PAK1.1_vs_vehicle (Nmd3, Young F 5xFAD brain): -0.95 | logFC_NVS.PAK1.1_vs_vehicle (Nmt1, Young F 5xFAD brain): -0.1011 | logFC_NVS.PAK1.1_vs_vehicle (Nomo1, Young F 5xFAD brain): -0.1733 | logFC_NVS.PAK1.1_vs_vehicle (Nrdc, Aged M 5xFAD brain): -0.1746 | logFC_NVS.PAK1.1_vs_vehicle (Ntm, Young M 5xFAD brain): 0.1007 | logFC_NVS.PAK1.1_vs_vehicle (Pkm, Aged M 5xFAD brain): -0.04674 | logFC_NVS.PAK1.1_vs_vehicle (Plpp3, Young F 5xFAD brain): -0.1143 | logFC_NVS.PAK1.1_vs_vehicle (Plxna4, Young F 5xFAD brain): 0.1065 | logFC_NVS.PAK1.1_vs_vehicle (Pnpo, Young F 5xFAD brain): 0.2 | logFC_NVS.PAK1.1_vs_vehicle (Ppp1r21, Young F 5xFAD brain): -0.1088 | logFC_NVS.PAK1.1_vs_vehicle (Ptgds, Young F 5xFAD brain): -0.128 | logFC_NVS.PAK1.1_vs_vehicle (RTRAF, Young F 5xFAD brain): -0.06356 | logFC_NVS.PAK1.1_vs_vehicle (Rab27b, Young F 5xFAD brain): 0.1779 | logFC_NVS.PAK1.1_vs_vehicle (Rab33a, Aged M 5xFAD brain): -0.2639 | logFC_NVS.PAK1.1_vs_vehicle (Rap2a, Young F 5xFAD brain): 0.09042 | logFC_NVS.PAK1.1_vs_vehicle (Rasgef1a, Aged M 5xFAD brain): 0.8766 | logFC_NVS.PAK1.1_vs_vehicle (Rbm4b, Aged M 5xFAD brain): -0.3664 | logFC_NVS.PAK1.1_vs_vehicle (Robo2, Young M 5xFAD brain): 0.2982 | logFC_NVS.PAK1.1_vs_vehicle (Rock2, Aged F 5xFAD brain): 0.0515 | logFC_NVS.PAK1.1_vs_vehicle (Rpl34, Young F 5xFAD brain): -0.09945 | logFC_NVS.PAK1.1_vs_vehicle (Rps3, Young F 5xFAD brain): -0.04356 | logFC_NVS.PAK1.1_vs_vehicle (S100a1, Young F 5xFAD brain): -0.119 | logFC_NVS.PAK1.1_vs_vehicle (Sec14l2, Young F 5xFAD brain): -0.1884 | logFC_NVS.PAK1.1_vs_vehicle (Senp3, Young M 5xFAD brain): -0.3344 | logFC_NVS.PAK1.1_vs_vehicle (Septin2, Young F 5xFAD brain): -0.1026 | logFC_NVS.PAK1.1_vs_vehicle (Septin3, Young F 5xFAD brain): 0.07371 | logFC_NVS.PAK1.1_vs_vehicle (Serpinb6, Young F 5xFAD brain): -0.1362 | logFC_NVS.PAK1.1_vs_vehicle (Sgip1, Young M 5xFAD brain): 0.06159 | logFC_NVS.PAK1.1_vs_vehicle (Snw1, Aged F 5xFAD brain): -0.2022 | logFC_NVS.PAK1.1_vs_vehicle (Spag9, Aged F 5xFAD brain): -0.08904 | logFC_NVS.PAK1.1_vs_vehicle (Stom, Aged F 5xFAD brain): -0.4369 | logFC_NVS.PAK1.1_vs_vehicle (Stom, Young M 5xFAD brain): -0.67 | logFC_NVS.PAK1.1_vs_vehicle (Stxbp5, Aged M 5xFAD brain): -0.08024 | logFC_NVS.PAK1.1_vs_vehicle (Syngr1, Young M 5xFAD brain): 0.07489 | logFC_NVS.PAK1.1_vs_vehicle (Sypl1, Aged M 5xFAD brain): 0.2577 | logFC_NVS.PAK1.1_vs_vehicle (Tbc1d24, Young F 5xFAD brain): 0.08048 | logFC_NVS.PAK1.1_vs_vehicle (Tkfc, Aged M 5xFAD brain): -0.1852 | logFC_NVS.PAK1.1_vs_vehicle (Tom1l2, Aged M 5xFAD brain): 0.07172 | logFC_NVS.PAK1.1_vs_vehicle (Txndc16, Young M 5xFAD brain): -1.405 | logFC_NVS.PAK1.1_vs_vehicle (Usp54, Aged M 5xFAD brain): 2.652 | logFC_NVS.PAK1.1_vs_vehicle (Vasp, Young F 5xFAD brain): 0.6308 | logFC_NVS.PAK1.1_vs_vehicle (Vps33b, Aged M 5xFAD brain): -0.1328 | logFC_NVS.PAK1.1_vs_vehicle (Wasf3, Young M 5xFAD brain): 0.12 | logFC_NVS.PAK1.1_vs_vehicle (Zfp967;Zfp968, Young F 5xFAD brain): -1.398
